Data taken from US7989422B2, “Antibacterial agents” (Alchemia Limited, priority 2005, dated 2011).

Tests used:
Type in all cases: cell-based
[1] = test system: Staphylococcus aureus ATCC 25923; experiment: MIC against S. aureus, microbroth dilution in MH broth, without or with 5% horse serum; conditions: MIC class; S. aureus ATCC 25923
Protocol: (§1) Testing was conducted to determine the in vitro antimicrobial activity of a series of compounds synthesised by Alchemia Pty Ltd. The antimicrobial activity of each compound was determined at a single concentration (128 μg/mL) in Mueller Hinton (MH) broth against the ATCC type strain of Staphylococcus aureus. […] Compounds showing activity at concentrations up to 32-64 μg/mL in the presence/absence of serum were then tested for MIC activity against a standard set of 5 microorganisms comprising of ATCC type strains of MRSA, Enterococcus faecalis, Enterococcus faecium, VRE and Escherichia coli. CLSI (formerly NCCLS) microbroth dilution technique was used.
(§2) Each compound is initially dissolved in 100 μL of DMSO. Each solution is then diluted further in 0.9 mL of sterile MH broth to give a total volume of 1 mL (1000 μg/mL) This stock solution is then further diluted in MH broth to give a test solution with final concentration of 128 μg/mL using the following formula: 0.5 ml stock in 3.4 ml MH broth
(§3) Each test organism was subcultured from the −70° C. deep freezer onto horse blood agar. The plates were streaked to obtain isolated colonies and incubated at 35° C. in non-CO2 incubator for 24 hours. A second subculture was carried out onto horse blood agar. For each test organism, 1-2 colonies were selected from an 18-24 hour culture and inoculated into 2 ml sterile MH broth. The turbidity was adjusted to 0.5 McFarland standard.
(§4) A 1:10 dilution in MH broth (200 μL in 2 ml MH) of the 0.5 McFarland control was prepared. 5 μL of this diluted solution was used to inoculate the trays.
100 μL of sterile MH broth was added in columns 2-12. 200 μL of test solution was added in column 1. 100 μL was transferred in column 2 giving a ½ dilution. 100 μL from column 2 was then transferred to column 3 (¼ dilution). This dilution was carried on until column 12. A second tray containing the same test solution was inoculated in a similar manner using sterile MH broth with 5% heat inactivated horse serum. 5 μL of organism solution was then added to each well. The plates were then sealed and incubated at 35° C. in a non-CO2 incubator for 18-24 hours. The plates were examined for growth after the incubation time.
(§5) If the test organism is sensitive to the compound in the broth the growth will be inhibited. Similarly, if the organism grows on the antibiotic containing medium then it is resistant to this particular antibiotic.

E. Faecium 51299 VanB = experiment: MIC against vancomycin-resistant enterococcus 51299 (VanB), microbroth dilution; conditions: MIC class; ATCC 51299 VanB
Protocol: as §1, §2, §3, §4
(§6) The trays were prepared in a similar way as mentioned above and incubated at 35° C. in a non-CO2 incubator for 18-24 hours. The plates were examined for growth after the incubation time.
(§7) After 18-24 hour incubation 5 μL from each well was then inoculated onto horse blood agar and incubated for 18-24 hours at 35° C. in a non-CO2 incubator.
as §5

[2] = test system: Enterococcus faecium ATCC 35667; experiment: MIC against E. faecium, microbroth dilution; conditions: MIC class
Protocol: as §1, §2, §3, §4, §6, §7, §5

[3] = test system: Enterococcus faecalis ATCC 29212; experiment: MIC against E. faecalis, microbroth dilution; conditions: MIC class
Protocol: as §1, §2, §3, §4, §6, §7, §5

[4] = test system: Staphylococcus aureus (MRSA) ATCC 33591; experiment: MIC against MRSA, microbroth dilution; conditions: MIC class
Protocol: as §1, §2, §3, §4, §6, §7, §5

Row | SMILES | S. Aureus 25923 activity [1] | E. Faecium 51299 VanB activity (E. Faecium 51299 VanB) | E. Faecium 35667 activity [2] | E. Fecalis 29212 activity [3] | S. Aureus 33591 MRSA activity [4]
1 | CC(C)(C)c1ccc(CNc2nc3cc(C(F)(F)F)ccc3n2C2C(CO)OCC(NC(=O)Nc3ccc(Cl)c(C(F)(F)F)c3)C2O)cc1 (stereo not shown) [Compound 248] | ++ (“++”: MIC (μg/mL): MIC ≦ 16) | ++ (“++”: MIC (μg/mL): MIC ≦ 16) | ++ (“++”: MIC (μg/mL): MIC ≦ 16) | ++ (“++”: MIC (μg/mL): MIC ≦ 16) | ++ (“++”: MIC (μg/mL): MIC ≦ 16)
2 | CCCCCC(C)CCC(=O)NC1C(CO)OCC(n2c(O)nc3cc(C(F)(F)F)cc(Cl)c32)C1O (stereo not shown) [Compound 177] | + (“+”: MIC (μg/mL): 64 ≧ MIC > 16) | − (“−”: MIC (μg/mL): MIC > 64) | + (“+”: MIC (μg/mL): 64 ≧ MIC > 16) | − (“−”: MIC (μg/mL): MIC > 64) | + (“+”: MIC (μg/mL): 64 ≧ MIC > 16)
3 | Nc1cc(C(F)(F)F)cc(Cl)c1NC1COC(CO)C(NC(=O)C(N)Cc2ccc(-c3ccccc3)cc2)C1O (stereo not shown) [Compound 202] | + (“+”: MIC (μg/mL): 64 ≧ MIC > 16) | − (“−”: MIC (μg/mL): MIC > 64) | + (“+”: MIC (μg/mL): 64 ≧ MIC > 16) | − (“−”: MIC (μg/mL): MIC > 64) | + (“+”: MIC (μg/mL): 64 ≧ MIC > 16)
4 | Nc1ccccc1OC1C(NC(=O)Nc2ccc(Cl)c(C(F)(F)F)c2)COC(CO)C1NC(=O)C(N)Cc1ccc(-c2ccccc2)cc1 (single isomer, unassigned) [Compound 70] | + (“+”: MIC (μg/mL): 64 ≧ MIC > 16) | − (“−”: MIC (μg/mL): MIC > 64) | + (“+”: MIC (μg/mL): 64 ≧ MIC > 16) | + (“+”: MIC (μg/mL): 64 ≧ MIC > 16) | ++ (“++”: MIC (μg/mL): MIC ≦ 16)
5 | NC(Cc1ccc(-c2ccccc2)cc1)C(=O)Nc1nc2cc(C(F)(F)F)ccc2n1C1C(CO)OCC(NC(=O)Nc2ccc(Cl)c(C(F)(F)F)c2)C1O (stereo not shown) [Compound 237] | − (“−”: MIC (μg/mL): MIC > 64) | − (“−”: MIC (μg/mL): MIC > 64) | − (“−”: MIC (μg/mL): MIC > 64) | ++ (“++”: MIC (μg/mL): MIC ≦ 16) | ++ (“++”: MIC (μg/mL): MIC ≦ 16)
6 | CCCCCCCCCCCCC(N)C(=O)NC1C(CO)OCC(n2c(S)nc3cc(C(F)(F)F)cc(Cl)c32)C1O (stereo not shown) [Compound 186] | ++ (“++”: MIC (μg/mL): MIC ≦ 16) | − (“−”: MIC (μg/mL): MIC > 64) | − (“−”: MIC (μg/mL): MIC > 64) | + (“+”: MIC (μg/mL): 64 ≧ MIC > 16) | + (“+”: MIC (μg/mL): 64 ≧ MIC > 16)
7 | CCCCCCCCCCNC1C(CO)OCC(NC(=O)Nc2ccc(Cl)c(C(F)(F)F)c2)C1O (stereo not shown) [Compound 50] | + (“+”: MIC (μg/mL): 64 ≧ MIC > 16) | − (“−”: MIC (μg/mL): MIC > 64) | + (“+”: MIC (μg/mL): 64 ≧ MIC > 16) | + (“+”: MIC (μg/mL): 64 ≧ MIC > 16) | + (“+”: MIC (μg/mL): 64 ≧ MIC > 16)
8 | CCCCCCCCCCCCC(N)C(=O)NC1C(CO)OCC(Nc2ccc(C(F)(F)F)cc2N)C1O (stereo not shown) [Compound 207] | + (“+”: MIC (μg/mL): 64 ≧ MIC > 16) | + (“+”: MIC (μg/mL): 64 ≧ MIC > 16) | + (“+”: MIC (μg/mL): 64 ≧ MIC > 16) | + (“+”: MIC (μg/mL): 64 ≧ MIC > 16) | + (“+”: MIC (μg/mL): 64 ≧ MIC > 16)
